Literature values in PMC8991498 (Food Chemistry: Molecular Sciences, 2021).

Test system: Caco-2 cell monolayers

Absorption of β-casein fragment (ref Regazzo et al. (2010))	Sequence	Passage of RAP through Caco-2 cell monolayers (ref Xu et al. (2017))
–	YWDHNNPQIR [RAP]	a percentage of this peptide managed to pass intact through the monolayer
could be absorbed mainly by transcytosis	YQEPVLGPVRGPFPIIV [β-casein fragment]	–
